Reference: patent US20180303101A1, “METHOD OF IMPROVING GRASS QUALITY” (priority 2004, published 2018)

System: Penncross creeping bentgrass
Experiment: Tiller density at high temperature treatment (Example 1)
Format: in vivo
Excerpt: The following test methods were used to compare the effectiveness of a phthalocyanine composition according to the invention with known compositions. The following compositions were used in the experiments: Pigment Green 7 obtained from Sun Chemical Corporation as the water-dispersible product SUN T-64-1660 (containing 45 to 55 wt. % of Pigment Green 7) was used alone. A mixture of Pigment Green 7 and fosetyl-al was used as the commercially available product Chipco® Signature™ fungicide from Bayer Environmental Science, Montvale, N.J. The compound fosetyl-al was used as Chipco® Aliette® WDG fungicide available from Bayer Environmental Science, Montvale N.J.
Seeds of “Penncross” creeping bentgrass were sown in polyvinyl chloride (PVC) tubes (10 cm in diameter and 20 cm in length) filled with coarse sand. Plants were kept in a growth chamber for 90 days before treatment stated to allow root and canopy establishment. The daily temperature in the growth chamber was 20/16° C., the photosynthetic photon flux density was 400 μmol m−2 s−1, and the photoperiod was 12 hours/day. Turf was mowed twice weekly at 4 mm with scissors, irrigated every other day until there was free drainage from the bottom of tubes, and fertilized weekly with 40 ml full-strength Hoagland's nutrient solution (Hoagland and Arnon, 1950). Insecticide was applied to kill whitefly when necessary. […]

With Pigment Green 7 the “Tiller density, difference among applications” value was “no significant difference”.
